Data from patent US12466821B2 (Novartis AG, priority 2018, dated 2025).

Columns and labels:
[1] = target: human CMV DNA polymerase UL54 (Human cytomegalovirus (strain AD169) (HHV-5) (Human herpesvirus 5), UniProt P08546); assay: CMV polymerase biochemical assay (molecular beacon-based)
Method: (§1) Both human CMV DNA polymerase UL54 and human HSV DNA polymerase UL30 were produced as N-terminal MBP fusion of the full length, wild type recombinant proteins in order to enhance soluble expression in insect cell expression system. The proteins were expressed in sf9 insect cells via baculovirus transduction and cells were harvested after 48 hours. The soluble proteins were purified using the standard Ni-IMAC purification strategy via the N-terminal hexa-Histidine tag, followed by heparin affinity chromatography. Both of the final MBP fusion proteins were more than 90% pure and the yield of UL54 was up to 1.8 mg per liter culture while UL30 was up to 15 mg per liter culture. All purification steps were performed on ice, with buffers chilled on ice and FPLC fraction collectors set at 6° C. […] UL30 protein was stored in buffer containing 20 mM HEPES, pH7.0, 420 mM NaCl, 20% glycerol, 6 mM Imidazole, and 0.8 mM DTT at−80° C.
(§2) DNA polymerase activity was measured using a molecular beacon-based assay, as described in Ma et. al.
(§3) 100 pM CMV polymerase or 625 pM HSV polymerase was added to a buffer containing 20 mM Tris, pH=7.5, 100 mM NaCl, 10 mM MgCl2, 0.01% Tween-20, 0.5 mM EDTA, 10% Sucrose and 1 mM DTT. The inhibitor was pre-incubated with the polymerase for 30 minutes at room temperature. Reactions were initiated by the addition of a mixture containing 1.25 uM dATP, 1.25 uM dCTP, 1.25 uM dTTP, 1.25 uM dGTP, 200 nM Primer B (5′-GAC GGG AAG-3′5′-GAC GGG AAG-3′) and 100 nM molecular beacon (5′-5,6-FAM-CCTCTCCGTGTCTTGTACTTCCCGTCAGAGAGG-BHQ1-3′). For human CMV polymerase the reactions were incubated for 60 minutes at room temperature. For HSV polymerase the reactions were incubated for 20 minutes at room temperature. The reactions were then read on a Perkin-Elmer EnVision 2101 reader (fluorescence) using an excitation of 480 nm and emission of 535 nm. 1050s were determined using an internal Novartis software (Helios).
as §3, with “nm.” for “nm. 1050s were determined using an internal Novartis software (Helios).”

[2] = target: human HSV DNA polymerase UL30 (Human herpesvirus 1 (strain 17) (HHV-1) (Human herpes simplex virus 1), UniProt P04293); assay: HSV polymerase biochemical assay (molecular beacon-based)
Method: as §1, §2, §3
as §3, with “nm.” for “nm. 1050s were determined using an internal Novartis software (Helios).”

[3] = tested on: Luciferase-encoding HCMV, AD169 strain; assay: CMV Luciferase assay (cellular herpesvirus replication); format: cell-based; settings: Human betaherpesvirus 5, AD169, read-out: CMV-Luc Cellular EC50
How it was run: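 Neonatal human dermal fibroblasts were pretreated 1 h with compound (final 0.0159–50 μM or 0.00318–10 μM, 0.5% DMSO), then infected at MOI 1 with AD169 carrying pp28-promoter luciferase. After 72 h at 37 °C, Renilla-Glo luminescence normalized to no-virus and virus-only controls; EC50 by 4-parameter logistic model.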

CC1Cn2c(ccc(C(=O)NCc3ccc(Cl)cc3)c2=O)C(=O)N1CCN(C)S(C)(=O)=O (stereo not drawn) [Example 92, N-(4-chlorobenzyl)-3-methyl-2-(2-(N-methylmethylsulfonamido)ethyl)-1,6-dioxo-2,3,4,6-tetrahydro-1H-pyrido[1,2-a]pyrazine-7-carboxamide]
IC50 [1]: 312 nM
IC50 [2]: 1340 nM
EC50 [3]: 2980 nM

CN1CCC(S(=O)(=O)C2(CN3CCn4c(ccc(C(=O)NCc5ccc(C#N)cc5)c4=O)C3=O)CC2)C1 (stereo not drawn) [Example 81-4]
IC50 [1]: 23.3 nM
IC50 [2]: 474 nM
EC50 [3]: 1080 nM

CCS(=O)(=O)C1(CN2CCn3c(ccc(C(=O)NCc4ccc(C#N)c(F)c4)c3=O)C2=O)CC1 [Example 34]
IC50 [1]: 1.6 nM
IC50 [2]: 69.5 nM
EC50 [3]: 41.2 nM

N#Cc1ccc(CNC(=O)c2ccc3n(c2=O)CCN(CC2(S(=O)(=O)CC4(C(F)(F)F)CC4)CC2)C3=O)cc1 [Example 104-2]
IC50 [1]: 24.3 nM
IC50 [2]: 301 nM
EC50 [3]: 1820 nM

CC(C)(C)NS(=O)(=O)C1(CN2CCn3c(ccc(C(=O)NCc4ccc(Cl)cc4)c3=O)C2=O)CC1 [Example 72-1, 2-((1-(N-(tert-butyl)sulfamoyl)cyclopropyl)methyl)-N-(4-chlorobenzyl)-1,6-dioxo-2,3,4,6-tetrahydro-1H-pyrido[1,2-a]pyrazine-7-carboxamide]
IC50 [1]: 0.6 nM
IC50 [2]: 23.5 nM
EC50 [3]: 29.2 nM

C[S+]([O-])C1(CN2CCn3c(ccc(C(=O)NCc4ccc(Cl)cc4)c3=O)C2=O)CC1 (stereo not drawn) [Example 67-1, N-(4-chlorobenzyl)-2-((1-(methylsulfinyl)cyclopropyl)methyl)-1,6-dioxo-2,3,4,6-tetrahydro-1H-pyrido[1,2-a]pyrazine-7-carboxamide]
IC50 [1]: 57.3 nM
IC50 [2]: 1780 nM
EC50 [3]: 868 nM

Cc1cc(C(=O)NCc2ccc(C#N)cc2)c(=O)n2c1C(=O)N(CC1(S(=O)(=O)C3CC3)CC1)CC2 [Example 93-1, N-(4-cyanobenzyl)-2-((1-(cyclopropylsulfonyl)cyclopropyl)methyl)-9-methyl-1,6-dioxo-2,3,4,6-tetrahydro-1H-pyrido[1,2-a]pyrazine-7-carboxamide]
IC50 [1]: 1.1 nM
IC50 [2]: 46.7 nM
EC50 [3]: 38.6 nM

CC(=O)N(C)CCN1CCn2c(ccc(C(=O)NCc3ccc(Cl)cc3)c2=O)C1=O [Example 61]
IC50 [1]: 364 nM
IC50 [2]: 5560 nM
EC50 [3]: 6340 nM

N#Cc1ccc(CNC(=O)c2ccc3n(c2=O)CCN(CC2(S(=O)(=O)C4(CF)CC4)CC2)C3=O)cc1 [Example 13]
IC50 [1]: 0.4 nM
IC50 [2]: 28.3 nM
EC50 [3]: 19.3 nM

CN1CC(S(=O)(=O)C2(CN3CCn4c(ccc(C(=O)NCc5ccc(C#N)cc5)c4=O)C3=O)CC2)C1 [Example 20]
IC50 [1]: 13.2 nM
IC50 [2]: 319 nM
EC50 [3]: 1500 nM

O=C(NCc1ccc(Cl)cc1)c1ccc2n(c1=O)CCN(CCN1CCCC1=O)C2=O [Example 56]
IC50 [1]: 312 nM
IC50 [2]: 4760 nM
EC50 [3]: 3830 nM

CN(C(C)(C)C)S(=O)(=O)C1(CN2CCn3c(ccc(C(=O)NCc4ccc(Cl)cc4)c3=O)C2=O)CC1 [Example 74-1]
IC50 [1]: 0.4 nM
IC50 [2]: 22.7 nM
EC50 [3]: 13.7 nM

CS(=O)(=O)N1CCC[C@H]1CN1CCn2c(ccc(C(=O)NCc3ccc(Cl)cc3)c2=O)C1=O [Example 63-1]
IC50 [1]: 1400 nM
IC50 [2]: 23400 nM
EC50 [3]: 42700 nM

N#Cc1ccc(CNC(=O)c2ccc3n(c2=O)CCN(CC2(S(=O)(=O)C4CC4(F)F)CC2)C3=O)cc1Cl (stereo not drawn) [Example 98-3]
IC50 [1]: 1.7 nM
IC50 [2]: 200 nM
EC50 [3]: 102 nM

N#Cc1ccc(CNC(=O)c2ccc3n(c2=O)CCN(CCS(=O)(=O)C2CC2)C3=O)cc1 [Example 194]
IC50 [1]: 103 nM
IC50 [2]: 855 nM
EC50 [3]: 4220 nM

O=C(NCc1ccc(Cl)cc1)c1ccc2n(c1=O)CCN(CC1(S(=O)(=O)N3CC(F)(F)C3)CC1)C2=O [Example 84-3]
IC50 [1]: 1.4 nM
IC50 [2]: 52.6 nM
EC50 [3]: 31 nM
